Assay results: patent US4582822A, “Antibiotic A80190, pharmaceutical compositions containing same and method of use” (Eli Lilly and Company, priority 1984, dated 1986)
Values after ≈ are worked out from the molar mass of the structure shown. Values joined by “and” are separate entries in the source; they are usually repeats but may differ in a detail not shown here. Equal values may be shown once.

Key:
[1] = tested on: Clostridium perfringens 81; format: cell-based; settings: 24-hour incubation
two-spotted spider mite = test: Acaricidal activity; settings: in vivo
[2] = tested on: volatile-fatty-acid (VFA) production, rumen; test: Ruminant feed-utilization efficiency, VFA ratio treated/control flasks
Text: The efficiency of feed use can be monitored by observing the production and concentration of propionate compounds in the rumen using the method described by Arthur P. Raun in U.S. Pat. No. 3,794,732 (see especially Example 5).

Staphylococcus aureus = test: Disc-diffusion, zone of inhibition; format: cell-based; settings: 6-mm pads dipped in 1 mg/ml
Protocol: (§1) The inhibitory activity of A80190 is illustrated in Table VI. Activity was measured by the conventional disc-diffusion method (6-mm pads were dipped in solutions containing 1 mg of compound per ml of solution; pads were placed on agar plates seeded with test organism).

Neurospora crassa = test: Disc-diffusion, zone of inhibition; format: cell-based; settings: 6-mm pads dipped in 1 mg/ml
Protocol: as §1

Mycobacterium avium = test: Disc-diffusion, zone of inhibition; format: cell-based; settings: 6-mm pads dipped in 1 mg/ml
Protocol: as §1

Bacillus subtilis = test: Disc-diffusion, zone of inhibition; format: cell-based; settings: 6-mm pads dipped in 1 mg/ml
Protocol: as §1

Candida albicans = test: Disc-diffusion, zone of inhibition; format: cell-based; settings: 6-mm pads dipped in 1 mg/ml
Protocol: as §1

Micrococcus luteus = test: Disc-diffusion, zone of inhibition; format: cell-based; settings: 6-mm pads dipped in 1 mg/ml
Protocol: as §1

[3] = tested on: Saccharomyces pastorianus; test: Disc-diffusion, zone of inhibition; format: cell-based; settings: 6-mm pads dipped in 1 mg/ml
Protocol: as §1

[4] = tested on: Propionibacterium acnes 79; test: Agar-dilution MIC, anaerobic bacteria; format: cell-based; settings: 24-hour incubation
[5] = tested on: Peptococcus asaccharolyticus 1302; test: Agar-dilution MIC, anaerobic bacteria; format: cell-based; settings: 24-hour incubation
mosquito larvae = test: Insecticidal activity; settings: in vivo
southern armyworm = test: Insecticidal activity; settings: in vivo
blowfly larvae = test: Insecticidal activity; settings: in vivo
[6] = tested on: Peptostreptococcus anaerobius 1428; test: Agar-dilution MIC, anaerobic bacteria; format: cell-based; settings: 24-hour incubation
[7] = Ionophorous (ion-transport) activity with cations
[8] = tested on: Fusobacterium symbiosum 1470; test: Agar-dilution MIC, anaerobic bacteria; format: cell-based; settings: 24-hour incubation
[9] = tested on: Eubacterium aerofaciens 1235; test: Agar-dilution MIC, anaerobic bacteria; format: cell-based; settings: 24-hour incubation
Mexican bean beetle = test: Insecticidal activity; settings: in vivo
Caenorhabditis elegans = test: Anthelmintic activity; settings: in vivo
mitochondrial ATPase = test: Inhibition of mitochondrial ATPase in vitro; format: biochemical
Text: In yet another aspect, the A80190 compounds are active as inhibitors of the enzyme ATPase. ATPase, an alkali-metal-sensitive enzyme found in cell membranes, is involved in the energy necessary for active transport. "Active transport" refers to the energy requiring series of operations whereby intracellular and extracellular fluids maintain their compositions. Inhibitors of ATPase reduce the energy required for active transport. In vitro tests have shown that A80190 inhibits mitochondrial ATPase with a half-effective concentration (IC50) of 0.5 μg/ml.

pigweed = test: Herbicidal activity; format: in vivo; settings: 200 gpa; either pre-emergence or post-emergence
adult housefly = test: Insecticidal activity; settings: in vivo
Polio III virus = format: cell-based; settings: tissue culture
[10] = tested on: Peptostreptococcus intermedius 1624; test: Agar-dilution MIC, anaerobic bacteria; format: cell-based; settings: 24-hour incubation
Eimeria tenella = test: In vitro tissue culture screen, anticoccidial; format: cell-based; parameters: key: C: cytotoxic; A: active; S: slightly active; N: not active
Text: Anticoccidial activity is an important property of the A80190 compounds. Table VIII summarizes the results of an in vitro tissue culture screen of A-80190 compounds vs. Eimeria tenella.

[11] = tested on: natural and artificial membranes; test: Cation permeability of membranes
Petococcus prevoti 1281 = test: Agar-dilution MIC, anaerobic bacteria; format: cell-based; settings: 24-hour incubation
Solubility = format: physicochemical
Text: (§2) Antibiotic A80190 has been assigned structure 1 based on X-ray crystallographic studies. A80190 (in its free acid form) has the following characteristics: […]

crabgrass = test: Herbicidal activity; format: in vivo; settings: 200 gpa; either pre-emergence or post-emergence
[12] = tested on: Fusobacterium necrophorum 6054A; test: Agar-dilution MIC, anaerobic bacteria; format: cell-based; settings: 24-hour incubation
mustard = test: Herbicidal activity; format: in vivo; settings: 200 gpa; either pre-emergence or post-emergence
[13] = tested on: Bacteroides vulgatis 1211; test: Agar-dilution MIC, anaerobic bacteria; format: cell-based; settings: 24-hour incubation
Treponema hyodysenteriae = test: Growth inhibition, swine dysentery agent; format: cell-based
[14] = pKa in 66% aqueous dimethylformamide; format: physicochemical
Text: as §2

[15] = tested on: Clostridium septicum 1128; test: Agar-dilution MIC, anaerobic bacteria; format: cell-based; settings: 24-hour incubation
Protocol: (§3) One important aspect of the antimicrobial activity of A80190 compounds relates to their activity against anaerobic bacteria. The minimal inhibitory concentrations (MIC's) at which A80190 inhibits various anaerobic bacteria, as determined by standard agar-dilution assay, are summarized in Table VII. End points were read after 24-hour incubation.

[16] = tested on: Clostridium difficile 2994; test: Agar-dilution MIC, anaerobic bacteria; format: cell-based; settings: 24-hour incubation
Protocol: as §3

[17] = tested on: Bacteroides corrodens 1874; test: Agar-dilution MIC, anaerobic bacteria; format: cell-based; settings: 24-hour incubation
Protocol: as §3

[18] = tested on: Bacteroides fragilis 1877; test: Agar-dilution MIC, anaerobic bacteria; format: cell-based; settings: 24-hour incubation
Protocol: as §3

Bacteroides fragilis 111 = test: Agar-dilution MIC, anaerobic bacteria; format: cell-based; settings: 24-hour incubation
Protocol: as §3

[19] = tested on: Bacteroides melaninogenicus 2736; test: Agar-dilution MIC, anaerobic bacteria; format: cell-based; settings: 24-hour incubation
Protocol: as §3

[20] = tested on: Bacteroides melaninogenicus 1856/28; test: Agar-dilution MIC, anaerobic bacteria; format: cell-based; settings: 24-hour incubation
Protocol: as §3

[21] = tested on: Bacteroides fragilis 1936B; test: Agar-dilution MIC, anaerobic bacteria; format: cell-based; settings: 24-hour incubation
Protocol: as §3

[22] = tested on: Bacteroides thetaiotaomicron 1438; test: Agar-dilution MIC, anaerobic bacteria; format: cell-based; settings: 24-hour incubation
Protocol: as §3

A. macra = test: Resistance to antibiotics, sensitivity discs on seeded agar; format: cell-based, Actinomadura macra
Protocol: (§4) Resistance to antibiotics was measured by padding antibiotic sensitivity discs onto the surface of seeded ISP No. 2 agar plates.
(§5) Table III lists the resistance of the strain to various antibiotics at the concentrations indicated and compares it to that of A. macra.

NRRL 15878 = test: as above; format: cell-based, Actinomadura oligospora
Protocol: as §4, §5

Question: What does the source list for `CC[C@@H](O)[C@]1(C)C[C@H](C)[C@@](O)([C@H]2C[C@H](C)[C@H]([C@]3(C)C[C@@H](O[C@H]4CC[C@H](OC)[C@@H](C)O4)[C@H]([C@@H]4CC[C@@]5(O[C@H]([C@@H](C)[C@@H](OC)[C@H](C)C(=O)O)[C@H](C)[C@@H](OC)[C@H]5C)O4)O3)O2)O1` [A80190]?
Answer: MIC [1]: < 0.5 µg/mL; active when applied at a rate as low as (two-spotted spider mite): 25 ppm; Molar % Acetate (ratio treated/control) ([2]; 0.3 mcg/ml): 0.970; Molar % Butyrate (ratio treated/control) ([2]; 0.3 mcg/ml): 0.819; Molar % Propionate (ratio treated/control) ([2]; 0.3 mcg/ml): 1.220; Total VFA/Control VFA ([2]; 0.3 mcg/ml): 0.967 mM/L; Molar % Acetate (ratio treated/control) ([2]; 1 mcg/ml): 0.986 and 0.892 and 1.016 and 0.926; Molar % Butyrate (ratio treated/control) ([2]; 1 mcg/ml): 0.851 and 0.813 and 0.706 and 0.529; Molar % Propionate (ratio treated/control) ([2]; 1 mcg/ml): 1.185 and 1.403 and 1.247 and 1.566; Total VFA/Control VFA ([2]; 1 mcg/ml): 0.916 mM/L and 0.887 mM/L and 0.857 mM/L and 0.913 mM/L; Molar % Acetate (ratio treated/control) ([2]; 3 mcg/ml): 0.998; Molar % Butyrate (ratio treated/control) ([2]; 3 mcg/ml): 0.611; Molar % Propionate (ratio treated/control) ([2]; 3 mcg/ml): 1.368; Total VFA/Control VFA ([2]; 3 mcg/ml): 0.963 mM/L; Zone of Inhibition (Staphylococcus aureus): 17 mm diameter; Zone of Inhibition (Neurospora crassa): 14 mm diameter; Zone of Inhibition (Mycobacterium avium): 21 mm diameter; Zone of Inhibition (Bacillus subtilis): 23 mm diameter; Zone of Inhibition (Candida albicans): 14 mm diameter; Zone of Inhibition (Micrococcus luteus): 20 mm diameter; Zone of Inhibition [3]: 10 mm diameter; MIC [4]: 1 µg/mL (≈ 1.21 µM); MIC [5]: 1 µg/mL (≈ 1.21 µM); active at levels as low as (mosquito larvae): < 50 ppm; active at levels as low as (southern armyworm): < 100 ppm; active at levels as low as (blowfly larvae): 35 ppm; MIC [6]: 1 µg/mL (≈ 1.21 µM); ionophorous effect, cation preference ([7]; 0.2 μg/ml, Cs+ vs Na+): even greater ionophorous effect with Cs^+ than with Na^+ as cation; ionophorous activity ([7]; 0.5 μg/ml): showed ionophorous activity; ionophorous activity, cation preference ([7]; 0.5 μg/ml, Na+, K+ and Rb+ vs Cs+ or Li+): activity with Na^+, K^+ and Rb^+ was better than that with Cs^+ or Li^+; MIC [8]: 8 µg/mL (≈ 9.65 µM); MIC [9]: < 0.5 µg/mL; active at levels as low as (Mexican bean beetle): < 100 ppm; active at levels as low as (Caenorhabditis elegans): 20 ppm; half-effective concentration (IC50) (mitochondrial ATPase): 0.5 µg/mL; active at (application rate) (pigweed): 2 lb/acre; active at levels as low as (adult housefly): 35 ppm; active at a level of (Polio III virus): 2000 µg/mL; MIC [10]: 1 µg/mL (≈ 1.21 µM); Activity vs. Eimeria tenella In Vitro (Eimeria tenella; 0.008 μg/ml): A; Activity vs. Eimeria tenella In Vitro (Eimeria tenella; 0.04 μg/ml): A; Activity vs. Eimeria tenella In Vitro (Eimeria tenella; 0.2 μg/ml): A; Activity vs. Eimeria tenella In Vitro (Eimeria tenella; 1 μg/ml): C; Activity vs. Eimeria tenella In Vitro (Eimeria tenella; 5 μg/ml): C; cation permeability [11]: alters the cation permeability of both natural and artificial membranes; MIC (Petococcus prevoti 1281): < 0.5 µg/mL; Solubility (Solubility; organic solvents): soluble in lower alcohols such as methanol, ketones such as acetone, esters such as ethyl acetate, halogenated hydrocarbons such as chloroform and hydrocarbons such as diethyl ether, benezene, toluene and warm hexane; Solubility (Solubility; water): Insoluble in water; active at (application rate) (crabgrass): 2 lb/acre; MIC [12]: 16 µg/mL (≈ 19.3 µM); active at (application rate) (mustard): 2 lb/acre; MIC [13]: 16 µg/mL (≈ 19.3 µM); inhibits the growth at levels as low as (Treponema hyodysenteriae): 0.39 µg/mL; pKa [14]: 6.2; MIC [15]: < 0.5 µg/mL; MIC [16]: < 0.5 µg/mL; MIC [17]: > 128 µg/mL; MIC [18]: > 128 µg/mL; MIC (Bacteroides fragilis 111): > 128 µg/mL; MIC [19]: > 128 µg/mL; MIC [20]: > 128 µg/mL; MIC [21]: > 128 µg/mL; MIC [22]: > 128 µg/mL

Question: With `CCC[C@@H]1C[C@@H](C(=O)N[C@@H]([C@H]2O[C@H](SC)[C@H](O)[C@@H](O)[C@H]2O)[C@@H](C)O)N(C)C1` [Lincomycin] as the molecule, how does the “Resistance to Antibiotics” value (A. macra; 2 μg) read?
Answer: Its value is “+”.

Question: For `NC[C@@H]1O[C@H](O[C@H]2[C@@H](O)[C@H](O[C@@H]3[C@@H](O)[C@H](N)C[C@H](N)[C@H]3O[C@H]3O[C@H](CN)[C@@H](O)[C@H](O)[C@H]3N)O[C@@H]2CO)[C@H](N)[C@@H](O)[C@@H]1O` [Neomycin], which “Resistance to Antibiotics” value (A. macra; 30 μg) is on record?
Answer: The value was “-”.

Question: What about the “Resistance to Antibiotics” value (NRRL 15878; 30 μg) of the same molecule?
Answer: The value was “-”.

Question: For `NC[C@H]1O[C@H](O[C@H]2[C@H](O)[C@@H](O[C@H]3O[C@H](CO)[C@@H](O)[C@H](N)[C@H]3O)[C@H](N)C[C@@H]2N)[C@H](N)C[C@@H]1O` [Tobramycin], which “Resistance to Antibiotics” value (A. macra; 10 μg) is on record?
Answer: Its value is “-”.

Question: Which “Resistance to Antibiotics” value (NRRL 15878; 15 μg) does the source give for Oleandomycin here?
Answer: Its value is “-”.
